In US20190223483A1, “SENSORY MODIFIER COMPOUNDS” (CARGILL, INCORPORATED, priority 2017, published 2019):
Several values for one entry are separate records, joined by “and”; a condition that tells them apart may be missing. Equal entries are not always repeated. Entries after “also recorded” stand apart in the source; their conditions may differ.

Experiments:
Format in all cases: in vivo
[1] = Roundtable assessment of astringency; set-up: key: 0 = none; 1 = trace/faint; 2 = slight; 3 = moderate; 4 = definite; 5 = strong; 6 = extreme
Experimental: Roundtable assessment of botanical notes assigned a scale of 0 to 5 with a score of 0 indicating no botanical notes and a score of 5 indicating strong (0=none, 1=trace, 2=slight, 3=moderate, 4=definite, 5=strong).
Solutions of steviol glycosides and sensory modifier compound were prepared at increasing ratios of sensory modifier to steviol glycoside by weight. […] The concentration of steviol glycosides was 700 ppm in each solution. The solutions were tested for astringency.

[2] = Sweetness intensity (SEV) by trained panel against 1%-14% sucrose standards; details: for sweetness intensity plateau (SEV): Reb M alone, at about 800 ppm; for sweetness intensity (SEV): about 1400 ppm Reb M with about 1400 ppm sensory modifier
Experimental: In some aspects, the amount of sensory modifier compound effective to increase sweetness intensity can be determined by panel testing with trained panelists. For example, […] can be determined by the following test: Solutions were prepared by dissolving steviol glycosides and sensory modifier compounds into reverse osmosis water at the indicated concentrations and/or ratios. Solutions were tested by a panel of at least four individuals that are highly-trained in tasting steviol glycoside solutions. The highly-trained panelists were trained against a standard range of 1%, 2%, 3%, 4%, 5%, 6%, 7%, 8%, 9%, 10%, 11%, 12%, 13%, and 14% sucrose solutions corresponding to 1, 2, 3, 4, 5, 6, 7, 8, 9, 10, 11, 12, 13, and 14 SEV. To test each solution, the highly-trained panelists dispensed approximately 2 mL of each solution into their own mouths by transfer pipet, dispersed the solution by moving their tongues, and recorded an SEV value for each solution based on comparison to the 1%, 2%, 3%, 4%, 5%, 6%, 7%, 8%, 9%, 10%, 11%, 12%, 13%, and 14% sucrose solutions. Between tasting solutions, the panelists were able to cleanse their palates with water. […] For sweetness intensity, the panelists focused on, and only recorded, the sweetness intensity in SEV that they tasted while disregarding other attributes of the solution. At the highest concentrations of steviol glycoside and sensory modifier compound, the panelists found other attributes to be highly noticeable, but recorded the isolated sweetness intensity for each solution despite these other attributes. Exemplary tests are described below in Example 1.
All solutions were prepared by dissolving steviol glycosides and sensory modifier compounds into reverse osmosis water at the indicated concentrations and/or ratios.
For sweetness intensity, the solutions were tested by a panel of at least four individuals that are highly-trained in tasting steviol glycoside solutions. The highly-trained panelists were trained against a standard range of 1%, 2%, 3%, 4%, 5%, 6%, 7%, 8%, 9%, 10%, 11%, 12%, 13%, and 14% sucrose solutions corresponding to 1, 2, 3, 4, 5, 6, 7, 8, 9, 10, 11, 12, 13, and 14 SEV. To test each solution, the highly-trained panelists dispensed approximately 2 mL of each solution into their own mouths by transfer pipet, dispersed the solution by moving their tongues, and recorded an SEV value for each solution based on comparison to the 1%, 2%, 3%, 4%, 5%, 6%, 7%, 8%, 9%, 10%, 11%, 12%, 13%, and 14% sucrose solutions. Between tasting solutions, the panelists were able to cleanse their palates with water. […] For this example, the panelists focused on and only recorded the sweetness intensity in SEV that they tasted while disregarding other attributes of the solution. At the highest concentrations of steviol glycoside and sensory modifier compound, the panelists found other attributes to be highly noticeable, but recorded the isolated sweetness intensity for each solution despite these other attributes.

[3] = Roundtable assessment of off taste (scale 0 to 6); set-up: key to Off taste / off taste score: 0 = none; 1 = trace/faint; 2 = slight; 3 = moderate; 4 = definite; 5 = strong; 6 = extreme
Experimental: For other sweetness attributes, the solutions were tested by a panel of at least four individuals that are highly-trained in tasting steviol glycoside solutions. The highly-trained panelists used a roundtable methodology to assess each sweetness attribute. To test each solution, the highly-trained panelists dispensed approximately 2 mL of each solution into their own mouths by transfer pipet, dispersed the solution by moving their tongues, and recorded a value for the particular sweetness attribute being tested. Between tasting solutions, the panelists were able to cleanse their palates with water. For each sweetness attribute, the panelist agreed on a descriptive scale with relative intensities assigned for each sweetness attribute and then recorded the values for each sweetness attribute against this. For example, this roundtable assessment of sweetness linger assigned a scale of 0 to 6 with a score of 0 indicating no sweetness linger and a score of 6 indicating extreme sweetness linger. Roundtable assessment of sweetness linger assigned a scale of 0 to 6 with a score of 0 indicating no sweetness linger and a score of 6 indicating extreme sweetness linger (0=none, 1=trace, 2=slight, 3=moderate, 4=definite, 5=strong, 6=extreme). Roundtable assessment of rounded assigned a scale of 0 to 3 with a score of 0 indicating spikey and a score of 3 indicating desirable rounded (0=none, 1=mostly spikey, some rounded, 2=mostly rounded, some spikey, 3=rounded). Roundtable assessment of mouthfeel assigned a scale of 0 to 2 with a score of 0 indicating water and a score of 2 indicating syrupy (0=water, 1=sucrosey, 2=syrupy). Roundtable assessment of bitterness assigned a scale of 0 to 6 with a score of 0 indicating no bitterness and a score of 6 indicating extreme sweetness linger (0=none, 1=trace, 2=slight, 3=moderate, 4=definite, 5=strong, 6=extreme). Roundtable assessment of off tastes assigned a scale of 0 to 6 with a score of 0 indicating no bitterness and a score of 6 indicating extreme off tastes (0=none, 1=trace, 2=slight, 3=moderate, 4=definite, 5=strong, 6=extreme).
A series of assays were carried out to characterize off taste (0=none, 1=trace/faint, 2=slight, 3=moderate, 4=definite, 5=strong, 6=extreme) of steviol glycoside compositions with sensory modifier compound using the roundtable methodology described in Example 1. […] Solutions of steviol glycosides and sensory modifier compound were prepared at increasing ratios of sensory modifier to steviol glycoside by weight. The steviol glycosides were RebA (4 glycoside groups), RebD (5 glycoside groups), RebM (6 glycoside groups), and OPS1-5(7 glycoside groups) and the sensory modifier compound was monocaffeoylquinic and dicaffeoylquinic acids prepared from yerba mate. The concentration of steviol glycosides was 700 ppm in each solution. The solutions were tested for off taste. Off taste included astringency, metallic, powdery, numbing, and vapory attributes.

[4] = RebM 700 ppm + cichoric acid (tartaric backbone) 514 ppm
[5] = RebM 700 ppm + cichoric acid (tartaric backbone) 772 ppm
[6] = RebM 700 ppm + cichoric acid (tartaric backbone) […]
[7] = RebM 700 ppm + rosmarinic acid 195 ppm
[8] = RebM 700 ppm + rosmarinic acid 391 ppm
[9] = RebM 700 ppm + rosmarinic acid 586 ppm
[10] = steviol glycoside 700 ppm + yerba mate mono/dicaffeoylquinic acids 236 ppm
[11] = steviol glycoside 700 ppm + yerba mate mono/dicaffeoylquinic acids 300 ppm
[12] = steviol glycoside 700 ppm + yerba mate mono/dicaffeoylquinic acids 400 ppm
[13] = steviol glycoside 700 ppm + yerba mate mono/dicaffeoylquinic acids 472 ppm
[14] = steviol glycoside 700 ppm + yerba mate mono/dicaffeoylquinic acids 500 ppm
[15] = steviol glycoside 700 ppm + yerba mate mono/dicaffeoylquinic acids 600 ppm
[16] = steviol glycoside 700 ppm + yerba mate mono/dicaffeoylquinic acids 700 ppm
[17] = steviol glycoside 700 ppm + yerba mate mono/dicaffeoylquinic acids 708 ppm
[18] = steviol glycoside 700 ppm + yerba mate mono/dicaffeoylquinic acids 800 ppm
[19] = steviol glycoside 700 ppm, sensory modifier 0 ppm

With `C=C1C[C@@]23CC[C@H]4[C@@](C)(CCC[C@@]4(C)C(=O)O[C@@H]4O[C@H](CO)[C@@H](O)[C@H](O[C@@H]5O[C@H](CO)[C@@H](O)[C@H](O)[C@H]5O)[C@H]4O[C@@H]4O[C@H](CO)[C@@H](O)[C@H](O)[C@H]4O)[C@@H]2CC[C@]1(O[C@@H]1O[C@H](CO)[C@@H](O)[C@H](O[C@@H]2O[C@H](CO)[C@@H](O)[C@H](O)[C@H]2O)[C@H]1O[C@@H]1O[C@H](CO)[C@@H](O)[C@H](O)[C@H]1O)C3` [RebM, Rebaudioside M] the Astringency [1, 4] was 0, the Astringency [1, 5] was 4 and the Astringency [1, 6] was 0. The Astringency [1, 7] was 0, the Astringency [1, 8] was 0 and the Astringency [1, 9] was 0. The Astringency ([1]; RebM 700 ppm, 0 ppm to 700 ppm of quinic backbone modifier) was “no perceptible astringency; also recorded: imperceptible”, the Astringency [1, 10] was 0 and the Astringency [1, 11] was “Not observed”. The Astringency [1, 12] was “Not observed”, the Astringency [1, 13] was 0 and the Astringency [1, 14] was 0. The Astringency [1, 15] was “Not observed”, the Astringency [1, 16] was “Not observed” and the Astringency [1, 17] was 0. The Astringency [1, 18] was “Not observed”, the Astringency [1, 19] was 0 and the “sweetness intensity plateau (SEV)” value ([2]; listed as Reb M) was “about 11”. For the same compound, the “sweetness intensity plateau (SEV)” value ([2]; listed as rebaudioside M) was ~11, the SEV ([2]; RebM 100 ppm + yerba mate mono/dicaffeoylquinic acids 100 ppm (1:1)) was 3.5 and the SEV ([2]; RebM 100 ppm, no sensory modifier) was 3.25. It also gave an SEV ([2]; RebM 200 ppm + yerba mate mono/dicaffeoylquinic acids 200 ppm (1:1)) of 6, an SEV ([2]; RebM 200 ppm, no sensory modifier) of 4.5 and an SEV ([2]; RebM 300 ppm + yerba mate mono/dicaffeoylquinic acids 300 ppm (1:1)) of 7.5. The SEV ([2]; RebM 300 ppm, no sensory modifier) was 5.75, the SEV ([2]; RebM 400 ppm + yerba mate mono/dicaffeoylquinic acids 400 ppm (1:1)) was 8.5 and the SEV ([2]; RebM 400 ppm, no sensory modifier) was 7.75. The SEV ([2]; RebM 500 ppm + yerba mate mono/dicaffeoylquinic acids 500 ppm (1:1)) was 9.25, the SEV ([2]; RebM 500 ppm, no sensory modifier) was 9 and the SEV ([2]; RebM 600 ppm + yerba mate mono/dicaffeoylquinic acids 600 ppm (1:1)) was 10. For the same compound, the SEV ([2]; RebM 600 ppm, no sensory modifier) was 9.5, the SEV [2, 4] was 10 and the SEV [2, 5] was 9. It also gave an SEV [2, 6] of 10, an SEV [2, 7] of 10.5 and an SEV [2, 8] of 10.25. It also gave an SEV [2, 9] of 10.25, an SEV ([2]; RebM 700 ppm + yerba mate mono/dicaffeoylquinic acids 700 ppm (1:1)) of 10.5 and an SEV ([2]; RebM 700 ppm, no sensory modifier) of 10.5. It also gave an SEV ([2]; RebM 800 ppm + yerba mate mono/dicaffeoylquinic acids 800 ppm (1:1)) of 10.5, an SEV ([2]; RebM 800 ppm, no sensory modifier) of 10.75 and an SEV ([2]; RebM 900 ppm + yerba mate mono/dicaffeoylquinic acids 900 ppm (1:1)) of 11. It also gave an SEV ([2]; RebM 900 ppm, no sensory modifier) of 11, an SEV ([2]; RebM 1000 ppm + yerba mate mono/dicaffeoylquinic acids 1000 ppm (1:1)) of 11.5 and an SEV ([2]; RebM 1000 ppm, no sensory modifier) of 11. For the same compound, the SEV ([2]; RebM 1100 ppm + yerba mate mono/dicaffeoylquinic acids 1100 ppm (1:1)) was 12, the SEV ([2]; RebM 1100 ppm, no sensory modifier) was 11 and the SEV ([2]; RebM 1200 ppm + yerba mate mono/dicaffeoylquinic acids 1200 ppm (1:1)) was 12.25. The SEV ([2]; RebM 1200 ppm, no sensory modifier) was 11, the SEV ([2]; RebM 1300 ppm + yerba mate mono/dicaffeoylquinic acids 1300 ppm (1:1)) was 12.5 and the SEV ([2]; RebM 1400 ppm + yerba mate mono/dicaffeoylquinic acids 1400 ppm (1:1)) was 13. The SEV ([2]; RebM 1500 ppm + yerba mate mono/dicaffeoylquinic acids 1500 ppm (1:1)) was 13, the SEV ([2]; RebM 1600 ppm + yerba mate mono/dicaffeoylquinic acids 1600 ppm (1:1)) was 13 and the “sweetness intensity (SEV)” value ([2]; listed as Reb M) was “about 13”. The “sweetness intensity (SEV)” value ([2]; listed as rebaudioside M) was ~13, the SEV [2, 10] was 10 and 10.5 and the SEV [2, 11] was 10.25. It also gave an SEV [2, 12] of 10.25, an SEV [2, 13] of 10 and an SEV [2, 14] of 10.00. For the same compound, the SEV [2, 15] was 10.5, the SEV [2, 16] was 10.5 and 10 and the SEV [2, 17] was 10. For the same compound, the SEV [2, 18] was 10.5, the SEV [2, 19] was 10.5 and the Off taste [3, 6] was 0. The Off taste [3, 7] was 0, the Off taste [3, 9] was 0 and the off taste ([3]; RebM 700 ppm, about 200 ppm and above of sensory modifier) was “not perceptible; also recorded: between slight and none”. For the same compound, the off taste ([3]; quinic, tartaric or 3-(3,4-dihydroxyphenyl)lactic acid backbone modifier above 200 ppm) was “none”, the Off taste [3, 10] was 0 and the Off taste [3, 11] was 0. The Off taste [3, 12] was 2, the Off taste [3, 13] was 0 and the Off taste [3, 14] was 0. The Off taste [3, 15] was 2, the Off taste [3, 16] was 0 and the Off taste [3, 17] was 0. The Off taste [3, 18] was 2 and the Off taste [3, 19] was 5.
